What was measured:
CFTR ΔF508 = target: T1, CFTR ΔF508 (Homo sapiens, UniProt P13569, DEL508-508); experiment: Chronic TECC assay on primary bronchial epithelial cells (corrector, co-corrector and potentiator); type: cell-based; details: chronic TECC, AUC = full area under the curve upon forskolin stimulation, with co-corrector and potentiator, 24 hours
T1 construct: bronchial epithelial cells isolated from CF patients homozygous for the CFTR ΔF508 mutation; McGill University; Asterand; University of North Carolina hAEC-CF; host or cells: primary human bronchial epithelial cells from CF patients homozygous for ΔF508
Experimental: Primary Bronchial Epithelial Cells Protocol
The TECC (Tranepithelial Clamp Circuit, EP-design) assay measures the functionality of the cystic fibrosis Transmembrane Conductance regulator (CFTR) by measuring the short circuit current (Isc) generated over the basolateral and apical membrane of lung epithelial cells. In TECC the transepithelial potential PD and transepithelial resistance (Rt)) are measured in an open circuit and transformed to Ieq using Ohm's law. 24 Wells can be measured simultaneously allowing a higher throughput compared to Ussing chambers.
For this purpose, bronchial epithelial cells isolated from CF patients homozygous for the CFTR ΔF508 mutation (hAEC-CF, Epithelix, Geneva, Switzerland; McGill University, Montreal, Qc; Asterand, Detroit, Mich.; University of North Carolina, Chapel Hill, N.C.) are plated on type IV collagen-coated Transwell® supports (Costar). Human airway epithelia are generated by provision of an air-liquid interface for 21 days to form well-differentiated polarized cultures that resemble in vivo pseudo-stratified ciliated epithelium (Fulcher, M. L., Gabriel, S., Burns, K. A., Yankaskas, J. R., Randell, S. H., 2005. Well-differentiated human airway epithelial cell cultures. Methods Mol. Med. 107, 183-206). The differentiated cells are treated with test corrector compound(s) (corrector alone or in combination with co-corrector, 4-[(2R,4R)-4-({[1-(2,2-difluoro-1,3-benzodioxol-5-yl)cyclopropyl]carbonyl}amino)-7-methoxy-3,4-dihydro-2H-chromen-2-yl]benzoic acid (G924806/A-1618261) (“acute”) or test corrector compounds, co-corrector and potentiator, N-(3-carbamoyl-5,5,7,7-tetramethyl-4,7-dihydro-5H-thieno[2,3-c]pyran-2-yl)-1H-pyrazole-5-carboxamide GLPG1837, (“chronic”) for 24 hours basolaterally to allow sufficient expression of properly folded CFTR protein on the membrane. All compound plates contained negative controls (DMSO) and positive controls (0.15 μM, 4-[(2R,4R)-4-({[1-(2,2-difluoro-1,3-benzodioxol-5-yl)cyclopropyl]carbonyl}amino)-7-(difluoromethoxy)-3,4-dihydro-2H-chromen-2-yl]benzoic acid).
For electrophysiological recording of the “chronic” experiments, the human airway epithelia are mounted in the TECC heating plate for electrophysiological measurement and kept at 37° C. The epithelia are bathed in a NaCl-Ringer solution (120 mM NaCl, 25 mM NaHCO3, 1.2 mM CaCl2, 1.2 mM MgCl2, 0.8 mM KH2PO4, 0.8 mM K2HPO4, pH 7.4, 5 mM glucose) on both the basolateral and apical sides. Test compounds (corrector, co-corrector, 4-[(2R,4R)-4-({[1-(2,2-difluoro-1,3-benzodioxol-5-yl)cyclopropyl]carbonyl}amino)-7-(difluoromethoxy)-3,4-dihydro-2H-chromen-2-yl]benzoic acid, and potentiator, N-(3-carbamoyl-5,5,7,7-tetramethyl-4,7-dihydro-5H-thieno[2,3-c]pyran-2-yl)-1H-pyrazole-5-carboxamide), are re-added to the recording solution prior to measurement. Apical amiloride is used to inhibit the endogenous ENaC currents while forskolin is applied on both apical and basolateral side to stimulate CFTR. Measurements are done during a 20 minute timeframe with recordings every 2 minutes. The increase in Ieq is used as a measure for the increased CFTR activity, EC50 values can be generated by measuring impact of different concentrations of compound on Ieq on primary cells, for this purpose each transwell is treated with a different compound concentration. Inhibitor-172, an inhibitor specific for CFTR, is used to test the specificity of the tested compounds. Raw data were normalized to percentage activity values using the equation: 100×(Sample−Negative control)/(Positive control−Negative Control).

ΔF508-CFTR = target: T2, ΔF508-CFTR (Homo sapiens, UniProt P13569, DEL508-508); experiment: CFTR cell surface levels using HRP-tagged ΔF508-CFTR expressing CFBE cells, in the presence of a co-corrector; type: cell-based; details: HRP-tagged ΔF508-CFTR expressing CFBE cells, in the presence of 3 μM co-corrector; for EC50: read-out: EC50
T2 construct: host or cells: CFBE41o-, doxycycline-inducible
Summary of the method: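 Cells were seeded with 0.5 μg/mL doxycycline and held 68 h at 37 °C. Test compounds plus 3 μM co-corrector (final 0.1% DMSO) were then added for 20 h at 33 °C. Washed cells received HRP substrate, and luminescence was normalized between DMSO and 3 μM co-corrector controls.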

T2 sequence (P13569 with tags, fused parts or gaps DEL508-508): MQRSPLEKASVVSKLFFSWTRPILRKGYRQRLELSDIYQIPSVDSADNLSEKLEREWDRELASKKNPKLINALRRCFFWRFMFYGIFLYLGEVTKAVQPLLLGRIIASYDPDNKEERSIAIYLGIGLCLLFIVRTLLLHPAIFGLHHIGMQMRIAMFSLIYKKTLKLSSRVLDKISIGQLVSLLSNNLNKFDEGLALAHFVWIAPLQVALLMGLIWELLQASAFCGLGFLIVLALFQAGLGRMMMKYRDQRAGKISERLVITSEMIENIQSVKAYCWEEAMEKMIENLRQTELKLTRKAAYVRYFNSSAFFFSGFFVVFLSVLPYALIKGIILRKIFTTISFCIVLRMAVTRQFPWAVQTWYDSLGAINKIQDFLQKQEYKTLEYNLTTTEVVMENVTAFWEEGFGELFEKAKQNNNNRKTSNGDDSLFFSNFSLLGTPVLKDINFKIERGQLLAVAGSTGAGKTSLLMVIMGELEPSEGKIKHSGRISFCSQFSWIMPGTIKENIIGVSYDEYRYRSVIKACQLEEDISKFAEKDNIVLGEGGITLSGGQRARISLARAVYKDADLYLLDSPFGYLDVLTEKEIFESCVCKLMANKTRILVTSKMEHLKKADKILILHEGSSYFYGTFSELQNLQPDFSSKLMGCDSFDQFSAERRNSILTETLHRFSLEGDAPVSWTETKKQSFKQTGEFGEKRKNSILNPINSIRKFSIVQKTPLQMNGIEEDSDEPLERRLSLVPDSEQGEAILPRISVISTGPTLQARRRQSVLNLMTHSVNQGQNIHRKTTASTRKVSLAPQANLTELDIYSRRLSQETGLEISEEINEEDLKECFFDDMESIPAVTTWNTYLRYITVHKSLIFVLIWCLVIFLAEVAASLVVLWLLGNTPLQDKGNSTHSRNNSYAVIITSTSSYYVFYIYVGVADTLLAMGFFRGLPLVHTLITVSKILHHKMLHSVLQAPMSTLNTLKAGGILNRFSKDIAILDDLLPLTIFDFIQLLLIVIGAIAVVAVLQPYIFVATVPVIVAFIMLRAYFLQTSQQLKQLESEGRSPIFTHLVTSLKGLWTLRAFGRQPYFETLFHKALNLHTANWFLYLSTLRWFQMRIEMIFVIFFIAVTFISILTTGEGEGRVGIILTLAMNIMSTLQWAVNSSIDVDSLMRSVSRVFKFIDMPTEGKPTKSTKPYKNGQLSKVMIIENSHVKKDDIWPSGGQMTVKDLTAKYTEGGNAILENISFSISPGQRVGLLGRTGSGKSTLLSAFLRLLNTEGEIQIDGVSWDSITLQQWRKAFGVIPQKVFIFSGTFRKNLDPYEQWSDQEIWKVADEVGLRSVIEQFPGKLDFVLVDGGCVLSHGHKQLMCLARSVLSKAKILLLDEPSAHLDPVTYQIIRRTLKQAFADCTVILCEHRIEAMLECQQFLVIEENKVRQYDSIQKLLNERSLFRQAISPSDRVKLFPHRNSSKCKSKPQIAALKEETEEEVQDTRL
T1 sequence (P13569 with tags, fused parts or gaps DEL508-508): as above

## COCC1CCN(c2cc(C(=O)O)nc3c2c(C2CCC2)nn3-c2ccc(F)cc2)CC1 [compound 657, 3-cyclobutyl-1-(4-fluorophenyl)-4-[4-(methoxymethyl)piperidin-1-yl]-1H-pyrazolo[3,4-b]pyridine-6-carboxylic acid]
CFTR ΔF508; read-out: EC50 (nM) (AUC)
  EC50: 78 nM
ΔF508-CFTR
  % Activation: 543%
  EC50: 306 nM

## O=C(O)c1cc(N2CCN(c3ccncc3)CC2)c2c(C3CCC3)nn(C3CCCCC3)c2n1 [compound 809, 3-cyclobutyl-1-cyclohexyl-4-[4-(pyridin-4-yl)piperazin-1-yl]-1H-pyrazolo[3,4-b]pyridine-6-carboxylic acid]
CFTR ΔF508; 1 μM
  % Activity at 1 μM (AUC**): 186.6667%
ΔF508-CFTR
  % Activation: 452.2%
  EC50: 184 nM
